Measured values taken from patent US9089561B2, “Methods for treating depression, neurodegeneration, inhibiting amyloid β deposition, delaying senescence, and extending life spans with heterocyclic compounds” (ZENYAKU KOGYO KABUSHIKI KAISHA, priority 2006, dated 2015).

What was measured:
[1] = system: senescene accelerated mice (SAMP8); test: survival rate / average life span of senescene accelerated mice; assay type: in vivo; details: 0.01 mg/kg/day in drinking water, vs control group given tap water, at any age in month
Method: (§1) Senescene accelerated mice (SAMP8) (male, 8 months old at the beginning of the study) were used in the study.
(§2) Compound 24 dissolved in tap water was given to the senescene accelerated mice at a dosage of 0.001, 0.01, or 0.1 mg/kg/day as drinking water. Tap water was given to the control mice as drinking water.
FIG. 6 is a graphical representation showing the influence of Compound 24 on the survival rate of senescene accelerated mice (SAMP8). The age in months of mice is plotted as abscissa and the survival rate (%) is plotted as ordinate.

[2] = preclinical study (safety)
[3] = system: senescene accelerated mice (SAMP8); test: amyloid β deposition in the hippocampus by amyloid β immunohistochemistry; assay type: in vivo; details: 0.002, 0.01 and 0.1 mg/kg/day in drinking water for 2 months, vs tap water
Method: Senescene accelerated mice (SAMP8) (male, 8 months old at the beginning of the study) were used for experiment. […] Eight weeks after the dosing, the mouse brain was removed, Methacarn-fixed (methanol:chloroform: acetic acid=6:3:1), and paraffin-embedded. Then, sections of 8 μm in thickness were prepared using a microtome.
The sections were immunostained with streptavidin-biotin using a VECTASTATIN ABC kit. After one hour of incubation in 10% normal goat serum, the anti-amyloid β (Aβ) antibody was diluted with PBS to ten fold and incubated at 4° C. overnight. The following day, PBS rinsing, 1.5 hours of incubation with biotinylated anti-rabbit secondary antibody, PBS rinsing, and 1.5 hours of incubation with peroxidase-labeled streptavidin were conducted. The immunoreaction was visualized with DAB and specimens were prepared.
Immunoreactive Aβ-like granules in the hippocampus were counted under the microscope. The Aβ-like immunoreactive granule was observed as brown deposits in the hippocampus. The count was made for one section per individual.

[4] = system: senescene accelerated mice (SAMP8); test: grading scores as aging indicator in senescene accelerated mice; assay type: in vivo
Method: as §1, §2
As an aging indicator of senescene accelerated mice, grading scores (Takeda et al., 1981) were measured after 0, 4, 8, 12, and 16 weeks of drinking water dosing in a short term study and after 12, 16, 20, 24, 28, and 32 weeks of drinking water dosing in a long term study.

[5] = system: gerbil transient forebrain ischemia model; test: delayed neuronal death in hippocampus CA1 region, gerbil transient forebrain ischemia model; assay type: in vivo; details: four days after reperfusion
Method: Gerbils (male, weighing approximately 55 to 80 g) were pinched with an exposured bilateral common carotid artery by microclip to cause the cerebral ischemia under 2% halothane inhalation anesthesia. After four minutes of ischemia, the microclip was removed to reperfuse the cerebral ischemia and the anesthesia was stopped. Four days after the reperfusion, the brain was removed and formalin-fixed. Sections of 4 μm in thickness were prepared and stained with hematoxylin-eosin. Surviving cells in the entire hippocampus CA1 field on both sides of each specimen were counted using a micrometer under the microscope. The number of surviving cells per 0.5 mm was obtained.
Compound 24 was suspended in 1% HPC and orally given one hour before the cerebral ischemia and 5 hours after the reperfusion. Then, two doses per day were given from the following day to the third day since the perfusion. The surviving cell count in the hippocampus CA1 field was expressed by the average±standard error. The Mann-Whitney's U test was used to obtain significant differences. The effective oral dosage of Compound 24 was plotted as abscissa and the surviving cell count/0.5 mm was plotted as ordinate.

O=C1N=C2C=CC=CN2C12Cc1ccccc1C2 [Compound 24, spiro[imidazo[1,2-a]pyridin-2(3H)-one-3,2′-indan]]
average life span (survival rate) [1]: average life span was extended | safety in a preclinical study [2]: highly safe | number of amyloid β-immunoreactive granules in the hippocampus [3]: significantly (*) decreased | grading score vs control, long term study ([4]; 0.01 mg/kg/day in drinking water, Weeks 20 to 32): significant differences (*, **) | grading score vs control, long term study ([4]; 0.1 mg/kg/day in drinking water, Weeks 16 to 32): significant differences (*, **) | grading score vs control, short term study ([4]; Week 16, 0.001, 0.01 and 0.1 mg/kg/day in drinking water): Significant differences (*) | grading score (aging indicator), short term study ([4]; in drinking water, up to 16 weeks, score of water group increased after Week 12): did not increase | surviving cell count in the hippocampus CA1 field ([5]; 0.01 mg/kg oral, n=7, average±standard error): 27.8±1.9 /0.5 mm | surviving cell count in the hippocampus CA1 field ([5]; 0.1 mg/kg oral, n=8, average±standard error): 32.5±9.4 /0.5 mm | surviving cell count in the hippocampus CA1 field ([5]; 1 mg/kg oral, n=9, average±standard error): 44.3±9.4 /0.5 mm
